According to patent US20260167629A1, “NOVEL INDAZOLE DERIVATIVE OR PHARMACEUTICALLY ACCEPTABLE SALT THEREOF, AND USE THEREOF” (KOREA UNIVERSITY RESEARCH AND BUSINESS FOUNDATION, priority 2022, published 2026):

Columns and labels:
[1] = tested on: MDA-MB-231 cell line; assay: MTS cell viability assay in MDA-MB-231 cell line; assay type: cell-based; details: Homo sapiens, MDA-MB-231, 72 hours
Protocol: A HER2 positive breast cancer (HER2+BC) cell line, JIMT-1 (cell seeding numbers: 1.0 (JIMT)×10^4 cells/wells (confluency≤30%)) and a triple-negative breast cancer (TNBC) cell line, MDA-MB-231 (cell seeding numbers: 1.0 (M231)×10^4 cells/wells (confluency≤30%) were used in the experiment.
The above cell lines were cultured in Dulbecco's Modified Eagle's Medium (DMEM) or Eagle's minimum Essential Medium (MEM) each containing 10% fetal bovine serum (FBS), streptomycin-penicillin (100 U/ml), and Fungizone (0.625 μg/ml), respectively under 5% CO2, 37° C. environment.
The JIMT-1 cell line and MDA-MB-231 cell line were treated with the indazole derivatives (formulas 1-1 to 1-53) of the present disclosure at a concentration of 10 μM each for 72 hours, and then cell viability was measured using the MTS assay technique. The control group was treated with DMSO as an untreated group (0 μM) of the indazole derivative of the present disclosure.
Specifically, cells were attached to 96 well plates for 24 hours, and then treated with the indazole derivatives for 72 hours. Thereafter, the cells were chromogenized with MTS for 4 hours, and the absorbance was measured at 490 nm using a Spectramax Plus384 microplate analyzer. The significance between the control group and the experimental group was verified using an unpaired Students t-test (*p<0.01; DMSO control vs indazole series).
HER2-positive breast cancer cell lines, BT474 (cell seeding numbers: 2.0 (JIMT)×10^4 cells/wells (confluency≤30%)) sensitive to trastuzumab, and JIMT-1 (cell seeding numbers: 1.0 (JIMT)×10^4 cells/wells (confluency≤30%)) resistant to trastuzumab, and a triple-negative breast cancer cell line, MDA-MB-231 (cell seeding numbers: 1.0 (M231)×10^4 cells/wells (confluency≤30%)) were used.
The BT474, JIMT-1, and MDA-MB-231 cell lines were treated with compound 18c (formula 1-16) and compound 11k (formula 1-7) at concentrations of 0 (DMSO), 0.1, 0.5, 1, 5, 10, and 20 μM, respectively, for 72 hours, and then cell viability was measured using the MTS assay technique as explained by the description of Experimental Example 1. The cell viability experiment was performed independently three times, and the significance was verified by a One-Way Anova, Bonferroni post-hoc test (*p<0.01; DMSO control vs. compound 18c or compound 11k).
In addition, the JIMT-1 and MDA-MB-231 cell lines were treated with compound 11m (formula 1-9), 11n (formula 1-10) and compound 12k (formula 1-13) at concentrations of 0 (DMSO), 0.1, 1, 5, 10, and 20 μM, respectively, for 72 hours, and then cell viability was measured.
Meanwhile, triple-negative breast cancer cell lines MDA-MB-231 and BT549, and a mouse breast cancer cell line 4T1 were treated with compound 38 (formula 1-30) at concentrations of 0 (DMSO), 0.1, 0.5, 1, 2, 5, 10, and 20 μM for 72 hours, and then cell viability was measured.
The indazole derivative of the present disclosure was compared with the benzopyran derivative of the related art (KR 10-2304532) in terms of cell viability of the BT474, JIMT-1, and MDA-MB-231 cell lines (Table 1). In this case, the cell lines were treated with the benzopyran derivative at a concentration of 10 μM for 72 hours and the cell lines were treated with the indazole derivative at a concentration of 10 μM for 72 hours, and then the cell viability was measured.

[2] = tested on: cleaved caspase-3, cleaved caspase-7, PARP in BT474 cell line; assay: Western blotting of apoptosis-related proteins, BT474; assay type: cell-based; details: BT474, 10 μM, 72 hours; for amounts of cleaved caspase-3 and cleaved caspase-7: compared to the control group
Protocol: To investigate the mechanism of cell death by compound 18c (formula 1-16) and compound 11k (formula 1-7), the activation of apoptosis-related factor caspase family members was determined through western blotting.
To perform western blotting, BT-474 and JIMT-1 cell lines were treated with control (DMSO), compound 18c, and compound 11k at concentrations of 10 μM each for 72 hours, and then lysed in lysis buffer (30 mM NaCl, 0.5% Triton X-100, 50 mM Tris-HCl; pH 7.4) containing phosphatase and protease inhibitors. The proteins present in the supernatant were harvested. The protein concentration was measured using a Bradford protein assay kit, and 30 μg of protein was taken equally from each experimental group. These proteins were electrophoresed on SDS-Polyacrylamide gels (8-15%), and electrically transferred to a nitrocellulose membrane. The membrane was reacted with primary antibodies [pro PARP (1:1000), cleaved PARP (1:2000), cleaved caspase-3 (1:1000), cleaved caspase-7 (1:1000), β-actin (1:5000)] diluted in 5% bovine serum albumin (BSA) at 4° C. for 24 hours, followed by a secondary antibody, horseradish peroxidase (HRP)-conjugated rabbit IgG (1:3000) for 2 hours at room temperature. The signal intensity of the above proteins was checked by color development using an Enhanced Chemiluminescence Kit and x-ray film.

[3] = Toxicity in JIMT-1 xenograft mice (body weight, H&E of liver, kidney, lung, AST, ALT, BUN); assay type: in vivo, Balb/c nude mice; details: intraperitoneally, 30 mg/kg compound 18c or 20 mg/kg compound 11k
Protocol: 6-week-old mice (Balb/c nude mice) were purchased and raised in an environment where they could freely access food and water. The mice were acclimated for more than 7 days, and then were transplanted with tumor cells. Tumor cells were injected subcutaneously into the mammary gland tissue of JIMT-1 breast cancer cells at a density of 3×10^6 cells/mL per individual, and when the tumor reached a size of 50 to 100 mm^3, the indazole derivative of the present disclosure was administered intraperitoneally, and the tumor growth was measured. The experimental groups were treated with either 30 mg/kg of compound 18c (formula 1-16) or 20 mg/kg of compound 11k (formula 1-7), and tumor volume, tumor weight, body weight, and the like were measured every 3 to 4 days from the time of administration until the end of the study.
To determine whether the treatment with the indazole derivatives of the present disclosure would affect normal organs, a toxicity analysis was performed.
The mouse model was sacrificed. The liver, kidney, and lung tissues were fixed in 4% paraformaldehyde for 24 hours, washed in PBS buffer, and then embedded in paraffin. Tissue samples were sectioned and stained with H&E (hematoxylin & eosin). […]

Structure (SMILES) | IC50 [1] [µM] | cleaved-PARP (89 kDa) [2] | amounts of cleaved caspase-3 and cleaved caspase-7 [2] | body weight [3]
COc1c(C(=O)Nc2ccc3c(C)nn(CCC4CCN(C)CC4)c3c2)ccc2c1C=CC(C)(C)O2 [compound 11k, 5-Methoxy-2,2-dimethyl-N-(3-methyl-1-(2-(1-methylpiperidin-4-yl)ethyl)-1H-indazol-6-yl)-2H-chromene-6-carboxamide] | 2.69 | increase | significantly increased | maintained
COCCn1nc(NC(=O)c2ccc3c(c2OC)C=CC(C)(C)O3)c2ccccc21 [compound 18c, 5-Methoxy-N-(1-(2-methoxyethyl)-1H-indazol-3-yl)-2,2-dimethyl-2H-chromene-6-carboxamide] | 6.84 | increase | significantly increased | maintained
